This note sets out measurements from publication PMC7579906, “Discovery of a dual inhibitor of NQO1 and GSTP1 for treating glioblastoma” (Journal of Hematology & Oncology, 2020).

In assay [1] the test system is U87MG/EGFRvIII cells. The assay is described as follows: Cell proliferation (MTT) assay, U87MG/EGFRvIII. The settings on record: Homo sapiens, U-87 MG; inhibition of cell proliferation/viability; MNPC treated 72 h. The format is cell-based, human. As for the experimental part:
(§1) The human glioblastoma cell line U87MG was stably transfected with vector control, pLHCX-EGFRvIII, pGFP-NQO1 and pRS-GSTP1, which were supplemented with various antibiotics. For EGFRvIII, 150 μg/mL of hygromycin was used; for pGFP-NQO1 and pRS-GSTP1, 0.7 μg/mL of puromycin was employed. The cells were supplemented with 10% fetal bovine serum (Hyclone, USA), penicillin (100 U/ml) and streptomycin (100 U/ml) (ABAM Life Technologies, USA) in a humidified incubator with 5% CO2 at 37 °C.
(§2) In vitro assessment was implemented for cell proliferation using the 3-(4, 5- dimethylthiazol- 2-yl)-2,5-diphenyltetrazolium bromide (MTT) assay. After different treatments with specific time periods, 10 μL of MTT (5 mg/mL in PBS, Sigma, USA) was added to each well and the plates were incubated for 3 h at 37 °C. The resulting formazan product was dissolved with DMSO. The absorbance at a wavelength of 490 nm was recorded using a microplate reader (BioTek Instruments Inc., USA).

Assay [2] deals with U87MG cells. Kind of assay: Cell proliferation (MTT) assay, parental U87MG. Type of assay: cell-based. As to conditions: Homo sapiens, U-87 MG, inhibition of cell proliferation/viability. As for the experimental part:
as §1, §2

For orientation: IC50 means the concentration that gives 50% inhibition.

On to `Cc1ccc(C)c(-c2csc(NC(=O)c3ccc(-c4ccccc4)cc3)n2)c1` [Compound 21], for which the concentration for half-maximal inhibition (IC50) is 1.67 µM in assay [1] and 16.6 µM in assay [2].
With `Cc1ccc(C(=O)Nc2nc(-c3ccccc3)c(C)s2)cc1` [Compound 22], the IC50 in assay [1] stood at 2.42 µM; in assay [2], 11.2 µM.
Regarding `CCc1cc(C(=O)Nc2nc(-c3ccc(C)c(C)c3)c(C)s2)cs1` [Compound 23], the values for the IC50 in assay [1] and in assay [2] were 2.22 µM and 29.1 µM, respectively.
For the molecule `Cc1ccc(-c2csc(NC(=O)c3cccc4ccccc34)n2)c(C)c1` [Compound 24], the half-maximal inhibitory concentration (IC50) in assay [1] was 1.34 µM; in assay [2], 24.5 µM.
In the same order, the values of `CC(=O)Oc1ccccc1C(=O)Nc1ncc([N+](=O)[O-])s1` [NTZ, nitazoxanide, reference compound] are 19.4 µM and 66.7 µM.
In the same order, the values of `O=C(Nc1ncc([N+](=O)[O-])s1)c1ccccc1O` [TIZ, tizoxanide, reference compound] are 22.4 µM and 82.9 µM.
